Common to all, as to test: growth of human tumour cells (NCI), 48 h
The subject of test [1] is NCI/ADR-RES ovarian.
Test [2] has as its system RXF 393 renal.
The test system of test [3] is A549 NSCLC.
Test [4] deals with OVCAR-3 ovarian.
For test [5], the system named is SK-MEL-28 melanoma.
For test [6], the system named is PC-3 prostate.
Test [7] concerns OVCAR-8 ovarian.
In test [8] the test system is K-562 leukemia.
The subject of test [9] is MALME-3M melanoma.
The test system of test [10] is TK-10 renal.

16 molecules from PubChem BioAssay (NCI) can be followed below.

Where “and” joins values, the source holds several entries; their conditions need not be identical. Identical values can stand only once.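 Protocol summary: plate cells (96-well), add compound at 5 concentrations, incubate 48 h, interpolate endpoints linearly. Here, GI50 denotes the concentration required for 50% inhibition of growth. TGI: concentration producing complete growth inhibition.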 Bounds are passed on as bounds.

As to `Cn1cc(-c2ccc3ncc(-c4ccc(CC(=O)Nc5cc(C(C)(C)C)nn5C)cc4)cc3c2)cn1`, the GI50 is 0.749 µM in [1]; 1.14 µM in test [2]; 1.44 µM in [3]; 1.4 µM in test [4]; 3.57 µM in test [5]; 0.961 µM in [6]. In addition, the GI50 in [7] was 0.736 µM; in test [8], 1.13 µM; in test [9], 0.721 µM; in [10] it was 1.52 µM. The TGI is 6.77 µM in test [1]; above 20 µM in [2]; above 20 µM in test [3]; above 20 µM in [4]; above 20 µM in test [5]; above 20 µM in test [6]. Moreover, the TGI in test [7] is 7.08 µM; in [8], above 20 µM; in test [9] it was above 20 µM; in test [10], above 20 µM.

In the case of `N=C(N)n1cc(/C=N/N=C(N)N)cn1`, the TGI in test [1], in [2], in [3], in test [4], in test [5] and in test [6] was above 100 µM in each case. The TGI in test [7], in test [8], in [9] and in test [10] was above 100 µM throughout.

In the case of `CCOC(=O)[C@@H](C)C[C@H](Cc1ccccc1)NC(=O)c1csc([C@@H](C[C@H](C(C)C)N(C)C(=O)CNC(=O)[C@H]2CCCCN2C)OC(C)=O)n1`, the GI50 in [1] was above 14.3 µM; in test [2], 0.502 µM; in [3] it was 3.49 µM; in test [4], 0.334 µM; in [5], 1.52 µM; in test [6], 0.508 µM. Moreover, the GI50 in [7] is 2.84 µM; in test [8], 0.358 µM; in [9] it was 0.601 µM; in [10], above 7.9 µM. Also, the TGI in test [1] is above 14.3 µM; in [2], 4.62 µM; in test [3], above 14.3 µM; in [4] it was 1.33 µM; in [5] it was above 14.3 µM; in test [6], above 14.3 µM. Further, the TGI in [7], in test [8], in test [9] and in test [10] was above 14.3 µM in each case.

Take `CN(C)CCCOc1ccc(NC2=C(Cl)C(=O)C(Nc3ccc(OCCCN(C)C)cc3)=C(Cl)C2=O)cc1`: the GI50 was 1.68 µM in test [1]; 1.19 µM in [2]; 0.731 µM in test [3]; 0.187 µM in test [4]; 1.74 µM in test [5]; 1.23 µM in [6]. Further, the GI50 was 0.446 µM in test [7], 0.276 µM in [8], 0.336 µM in test [9] and 1.99 µM in test [10]. For the same molecule, the TGI was determined as 4.72 µM in [1]; 2.45 µM in [2]; 2.12 µM in test [3]; 0.353 µM in [4]; 3.16 µM in [5]; 2.76 µM in test [6]. Besides, the TGI came to 1.04 µM in test [7], 0.798 µM in test [8], 0.935 µM in test [9] and 3.41 µM in [10].

For the molecule `CN(C)CCNC(=O)Nc1ccc(N(C)c2ccnc(Nc3ccc(CS(C)(=O)=O)cc3)n2)cc1`, the GI50 in test [1], in test [2], in [3], in [4], in [5] and in test [6] was above 25 µM each time. For the same molecule, the GI50 in test [7], in test [8], in test [9] and in [10] was above 25 µM each time. Also, the TGI in test [1], in [2], in test [3], in test [4], in [5] and in [6] was above 25 µM throughout. Further, the TGI in test [7], in test [8], in test [9] and in [10] was above 25 µM each time.

With `OCCNc1nc2ccccc2c2[nH]c3ccccc3c12`, the GI50 is 0.738 µM in test [1]; 0.146 µM in [2]; 0.394 µM in test [3]; 0.516 µM in test [4]; 1.04 µM in [5]; 1.1 µM in test [6]. The GI50 was 0.455 µM in test [7], 0.44 µM in test [8], 0.487 µM in test [9] and 0.744 µM in test [10]. The TGI turned out to be 5.18 µM in test [1]; 0.646 µM in test [2]; 2.19 µM in test [3]; 3.47 µM in [4]; 2.55 µM in test [5]; 16.9 µM in test [6]. The TGI was 4.7 µM in test [7], above 26.3 µM in [8], 1.91 µM in test [9] and 5.16 µM in test [10].

`Nc1ncnc2c1c(-c1ccc(Oc3ccccc3)cc1)nn2CC1SSCC1O` (centres undefined): the GI50 is 6.61 µM in test [1]; 2.74 µM in test [2]; 3.8 µM in test [3]; 0.659 µM in [4]; 0.131 µM in test [5]; 6.23 µM in [6]. Further, the GI50 in test [7] was 7.51 µM; in test [8] it was 0.788 µM; in [9], 0.847 µM; in test [10] it was 1.91 µM. The TGI worked out at 17.6 µM in [1]; 9.62 µM in test [2]; 9.17 µM in test [3]; 1.62 µM in test [4]; 0.92 µM in test [5]; 14.9 µM in [6]. Further, the TGI in test [7] came out at 23.3 µM; in test [8], 7.39 µM; in [9], 3.78 µM; in test [10] it was 6.34 µM.

`S=C(Sc1ccc(Cl)cc1)Sc1ccc(Cl)cc1`: the GI50 in [1] is 2.67 µM; in test [2] it was 2.04 µM; in test [3], 2.99 µM; in [4], 1.74 µM; in test [5] it was 1.89 µM; in test [6], 1.58 µM. For the same molecule, the GI50 in test [7] was 3.66 µM; in test [8], 1.87 µM; in test [9] it was 2.31 µM; in [10], 2.53 µM. Also, the TGI in test [1] was 6.58 µM; in test [2], 3.87 µM; in test [3], 13.7 µM; in test [4] it was 3.12 µM; in test [5], 3.49 µM; in test [6], 3.34 µM. The TGI in test [7] is 12.6 µM; in test [8], 7.63 µM; in [9], 4.8 µM; in test [10], 5.27 µM.

On to `Cc1cc(OC2OC(CO)C(O)C(O)C2O)ccc1O` (centres undefined), for which the TGI in test [1], in test [2], in test [3], in test [4], in test [5] and in test [6] was above 100 µM in each case. Also, the TGI in test [7], in [8], in test [9] and in test [10] was above 100 µM in each case.

Turning to `OCC1OC(OC2(CO)OC(CO)C(O)C2O)C(O)C(O)C1O` (centres undefined), the GI50 in test [1], in test [2], in test [3], in [4], in test [5] and in test [6] was above 100 µM throughout. The GI50 in [7], in [8], in [9] and in [10] was above 100 µM throughout. The TGI in test [1], in [2], in test [3], in test [4], in [5] and in test [6] was above 100 µM throughout. The TGI in test [7], in test [8], in [9] and in test [10] was above 100 µM throughout.

`C#COc1cccc(Nc2ncnc3cc(NC(=O)[C@@H](C)Cl)ccc23)c1`: the GI50 in test [1] was 5.21 µM; in [2] it was 8.12 µM; in test [3], 9.86 µM; in test [4], 2.68 µM; in test [5], 14 µM; in test [6], 11.7 µM. Moreover, the GI50 in [7] is 18.1 µM; in test [8] it was 2.56 µM; in [9], 20.1 µM; in [10], 36.5 µM. The TGI in test [1] was 34.6 µM; in test [2], 40.8 µM; in test [3], above 62.5 µM; in [4] it was above 62.5 µM; in [5], above 62.5 µM; in test [6] it was above 62.5 µM. In addition, the TGI in [7], in [8], in test [9] and in [10] was above 62.5 µM each time.

Regarding `O=[N+]([O-])/C=C/c1ccc2ccccc2c1`, the TGI in [1] was above 28 µM; in test [2], 5.72 µM; in [3] it was above 58.5 µM; in test [4], above 100 µM; in [5], 4.65 µM; in test [6] it was 14 µM. Further, the TGI was above 21.2 µM in test [7], 9.42 µM in test [8], 33.9 µM in [9] and 25.8 µM in test [10].

With `CCN(CC)CCNc1n[n+]([O-])c2cc([N+](=O)[O-])ccc2[n+]1[O-]`, the TGI in test [1] was 4.74 µM and 5.68 µM and 5.6 µM; in [2], 5.14 µM and 4.28 µM and 3.03 µM; in test [3] it was 3.11 µM and 3.08 µM and 2.48 µM; in test [4], 3.15 µM and 3.02 µM and 3.73 µM; in test [5], 22.4 µM and 22.8 µM and 14.5 µM; in test [6], 9.4 µM and 4.92 µM and 4.59 µM. Further, the TGI is 1.99 µM and 1.7 µM and 1.53 µM in test [7]; 1.23 µM and 1.28 µM and 0.926 µM in test [8]; 1.85 µM and 1.38 µM and 1.15 µM in test [9]; 14.7 µM and 8.94 µM and 5.88 µM in test [10]. The GI50 in test [6] is 1.09 µM and 0.351 µM and 0.36 µM; in test [8], 0.296 µM and 0.199 µM and 0.124 µM; in [9], 0.571 µM and 0.306 µM and 0.144 µM; in test [10], 2.8 µM and 1.42 µM and 1.21 µM.

For `Nc1c(C(=O)Nc2ccccc2)sc2nc3c(cc12)C(=O)CCC3`, the GI50 is 0.399 µM in [1]; 0.19 µM in test [2]; 0.436 µM in test [3]; 0.264 µM in test [4]; 0.71 µM in [5]; 0.389 µM in test [6]. The GI50 in [7] is 2.46 µM; in test [8], 0.287 µM; in [9], 4.66 µM; in test [10], 0.807 µM. For the same molecule, the TGI in test [1] is 10.6 µM; in test [2], 0.619 µM; in test [3], above 100 µM; in test [4], 1.22 µM; in [5] it was above 100 µM; in [6], above 100 µM. In addition, the TGI in [7], in test [8], in [9] and in test [10] was above 100 µM each time.

On to `Cc1ccc2ccc3c4ccccc4ccc3c2c1`, for which the GI50 in test [1] was 30.7 µM; in test [2], 20.1 µM; in test [3], 29.2 µM; in test [4] it was 25.5 µM; in test [5], 39.4 µM; in [6], 30.4 µM. Also, the GI50 in test [7] is 32.9 µM; in test [8], 34.7 µM; in test [9], 22.1 µM; in test [10] it was 28.5 µM. The TGI in test [1] is above 100 µM; in test [2], 46.8 µM; in [3], above 100 µM; in [4], 67.6 µM; in test [5] it was above 100 µM; in test [6], above 100 µM. For the same molecule, the TGI in test [7] was above 100 µM; in test [8], above 100 µM; in test [9] it was 54.3 µM; in [10], 67.8 µM.

For `COc1ccc([C@@]23Oc4cc(OC)cc(OC)c4[C@]2(O)[C@H](O)[C@H](C(=O)N(C)C)[C@H]3c2ccccc2)cc1`, the GI50 was 0.0077 µM and 0.0566 µM in [1]; 0.0178 µM in [2]; 0.0164 µM in test [4]; 0.0134 µM in [5]; 0.0173 µM in test [6]; 0.0208 µM in [7]. Besides, the GI50 is 0.00334 µM in test [8], 0.0142 µM in test [9] and 0.0484 µM in test [10]. Besides, the TGI in test [1] was 0.442 µM and 0.329 µM and 1.55 µM; in [2], 0.0823 µM and 0.0262 µM and 0.0785 µM; in test [5] it was 0.0616 µM and 0.0292 µM and 0.0492 µM; in [7], 0.244 µM and 0.236 µM and 0.488 µM; in test [8], 25 µM and > 100 µM; in [10], 0.0531 µM and 0.15 µM and 0.435 µM.
